The source of these data is PubChem BioAssay AID1259408 (Genetic Toxicology Data Bank (GENE-TOX), 2018).

The test system of the data set is GENE-TOX genotoxicity assays, various organisms and cells. The data set can be described thus: GENE-TOX mutagenicity studies.
Where [1] appears, read: Species/Cell Type: Human, Assay Type: Sister-chromatid exchange (SCE) in vitro, Assay Code: SC1+, Evaluation Type: Evaluation B (Post-1980).

Structures are written as SMILES. Activity calls are given as the source filed them. No rule for the calls is given here.

As to `COS(C)(=O)=O`, the mutagenic call was “active; positive” (Species/Cell Type: Arabidopsis species, Assay Type: Gene mutation, Assay Code: ARM+, Evaluation Type: Evaluation A (Pre-1980)); “active; positive” (Species/Cell Type: Aspergillus nidulans, Assay Type: Reverse gene mutation, Assay Code: ASR+, Evaluation Type: Evaluation A (Pre-1980)); “active; positive” (Species/Cell Type: Chinese hamster lung (V79) cells, Assay Type: Forward gene mutation at the HPRT or ouabain locus, Assay Code: V79+, Evaluation Type: Evaluation A (Pre-1980)); “active; positive” (Species/Cell Type: Chinese hamster ovary (CHO) cells, Assay Type: Forward gene mutation at the HPRT locus, Assay Code: CHO+D, Dose Response: With dose response, Evaluation Type: Evaluation A (Pre-1980)); “active; positive” (Species/Cell Type: Drosophila melanogaster, Assay Type: Sex-linked recessive lethal gene mutation, Assay Code: SRL+, Evaluation Type: Evaluation A (Pre-1980)); “active; positive” (Species/Cell Type: Drosophila melanogaster, Sex: Male, Assay Type: Heritable translocation test, chromosome aberrations, Assay Code: DHT+, Evaluation Type: Evaluation A (Pre-1980)). Moreover, the mutagenic call is, setting by setting: (Species/Cell Type: Escherichia coli WP2, Assay Type: Tryptophan reverse gene mutation, Assay Code: WP2+D, Dose Response: With dose response, Evaluation Type: Evaluation A (Pre-1980)) “active; positive”; (Species/Cell Type: Escherichia coli WP2 UVRA, Assay Type: Tryptophan reverse gene mutation, Assay Code: WPU+D, Dose Response: With dose response, Evaluation Type: Evaluation A (Pre-1980)) “active; positive”; (Species/Cell Type: Escherichia coli polA (W3119 vs P3478), Assay Type: Rec-assay, DNA effects (bacterial DNA repair), Assay Code: RE1+, Evaluation Type: Evaluation A (Pre-1980)) “active; positive”; (Species/Cell Type: Escherichia coli, Saccharomyces cerevisiae, Neurospora crassa, human lymphoid cells, Assay Type: Forward and reverse gene mutation, lethal mutation, mitotic recombination and gene conversion, chromosome effects, DNA e, Assay Code: HM9+, Evaluation Type: Evaluation A (Pre-1980)) “active; positive”; (Species/Cell Type: F1 mouse, Sex: Male, Assay Type: Sperm morphology, Assay Code: SPFT, Evaluation Type: Evaluation A (Pre-1980)) “no conclusion”; (Species/Cell Type: Glycine max (soybean), Assay Type: Gene mutation, Assay Code: GLM+, Evaluation Type: Evaluation A (Pre-1980)) “active; positive”. The mutagenic call (Species/Cell Type: Hordeum vulgare (barley), Assay Type: Chromosome aberrations, Assay Code: HOC+, Evaluation Type: Evaluation A (Pre-1980)) was “active; positive”; the mutagenic call (Species/Cell Type: Hordeum vulgare (barley), Assay Type: Gene mutation, Assay Code: HOM+D, Dose Response: With dose response, Evaluation Type: Evaluation A (Pre-1980)) is “active; positive”; the mutagenic call (Species/Cell Type: Human diploid fibroblasts, Assay Type: Unscheduled DNA synthesis (UDS) in vitro, DNA effects, Assay Code: UDH+D, Dose Response: With dose response, Evaluation Type: Evaluation A (Pre-1980)) is “active; positive”; the mutagenic call (Species/Cell Type: Human lymphocytes or leukocytes, Assay Type: Chromosome aberrations in vivo, Assay Code: CY8+, Evaluation Type: Evaluation A (Pre-1980)) is “active; positive”; the mutagenic call (Species/Cell Type: Human lymphocytes, Assay Type: Micronucleus test in vitro, chromosome aberrations, Assay Code: MN7+, Evaluation Type: Evaluation A (Pre-1980)) was “active; positive”; the mutagenic call (Species/Cell Type: Human lymphocytes, Assay Type: Sister-chromatid exchange (SCE) in vitro, Assay Code: SCL+, Evaluation Type: Evaluation A (Pre-1980)) is “active; positive”. For the same molecule, the mutagenic call by setting is: (Species/Cell Type: Human, Assay Type: Sister-chromatid exchange (SCE) in vitro, Assay Code: SC1+D, Dose Response: With dose response, Evaluation Type: Evaluation A (Pre-1980)) “active; positive”; (Species/Cell Type: Mammalian germ cells, Sex: Male, Assay Type: Chromosome aberrations in vivo, Assay Code: CY9+, Evaluation Type: Evaluation A (Pre-1980)) “active; positive”; (Species/Cell Type: Mammalian oocytes or early embryo, Assay Type: Chromosome aberrations in vivo, Assay Code: CYO+D, Dose Response: With dose response, Evaluation Type: Evaluation A (Pre-1980)) “active; positive”; (Species/Cell Type: Mammalian polychromatic erythrocytes, Assay Type: Micronucleus test, chromosome aberrations, Assay Code: MNT+, Evaluation Type: Evaluation A (Pre-1980)) “active; positive”; (Species/Cell Type: Mouse germ cells, Sex: Male, Assay Type: Unscheduled DNA synthesis (UDS) in vivo, DNA effects, Assay Code: UDT+, Evaluation Type: Evaluation A (Pre-1980)) “active; positive”; (Species/Cell Type: Mouse lymphoma (L5178Y) cells, Assay Type: Forward gene mutation at the thymidine kinase (TK) locus, chromosome aberrations, Assay Code: L51+, Evaluation Type: Evaluation A (Pre-1980)) “active; positive”. In addition, the mutagenic call (Species/Cell Type: Mouse, Sex: Female, Assay Type: Spot test, gene mutation, Assay Code: MST+, Evaluation Type: Evaluation A (Pre-1980)) is “active; positive”; the mutagenic call (Species/Cell Type: Mouse, Sex: Male, Assay Type: Heritable translocation test, chromosome aberrations, Assay Code: HTT+, Evaluation Type: Evaluation A (Pre-1980)) is “active; positive”; the mutagenic call (Species/Cell Type: Mouse, Sex: Male, Assay Type: Specific locus test, gene mutation, Assay Code: SLT+, Evaluation Type: Evaluation A (Pre-1980)) is “active; positive”; the mutagenic call (Species/Cell Type: Mouse, Sex: Male, Assay Type: Sperm morphology, Assay Code: SPI+, Evaluation Type: Evaluation A (Pre-1980)) was “active; positive”; the mutagenic call (Species/Cell Type: Neurospora crassa, Assay Type: Forward gene mutation, Assay Code: NEF+, Evaluation Type: Evaluation A (Pre-1980)) is “active; positive”; the mutagenic call (Species/Cell Type: Nonhuman, Assay Type: Sister-chromatid exchange (SCE) in vitro, Assay Code: SC2+D, Dose Response: With dose response, Evaluation Type: Evaluation A (Pre-1980)) is “active; positive”. Further, the mutagenic call (Species/Cell Type: Nonhuman, Assay Type: Sister-chromatid exchange (SCE) in vivo, Assay Code: SC3+D, Dose Response: With dose response, Evaluation Type: Evaluation A (Pre-1980)) was “active; positive”; the mutagenic call (Species/Cell Type: Rabbit, Sex: Male, Assay Type: Sperm morphology, Assay Code: SPRT, Evaluation Type: Evaluation A (Pre-1980)) is listed as “no conclusion”; the mutagenic call (Species/Cell Type: Rat primary hepatocytes, Assay Type: Unscheduled DNA synthesis (UDS) in vitro, DNA effects, Assay Code: UDP+, Evaluation Type: Evaluation A (Pre-1980)) is “active; positive”; the mutagenic call (Species/Cell Type: Rodents, Sex: Male, Assay Type: Dominant lethal test, Assay Code: DLT+D, Dose Response: With dose response, Evaluation Type: Evaluation A (Pre-1980)) was “active; positive”; the mutagenic call (Species/Cell Type: Saccharomyces cerevisiae, Assay Type: Forward gene mutation, Assay Code: YEF+, Evaluation Type: Evaluation A (Pre-1980)) was “active; positive”; the mutagenic call (Species/Cell Type: Saccharomyces cerevisiae, Assay Type: Mitotic recombination or gene conversion, Assay Code: YEC+, Evaluation Type: Evaluation A (Pre-1980)) was “active; positive”. Moreover, the mutagenic call (Species/Cell Type: Saccharomyces cerevisiae, Assay Type: Mitotic recombination or gene conversion, Assay Code: YEH+, Evaluation Type: Evaluation A (Pre-1980)) was “active; positive”; the mutagenic call (Species/Cell Type: Saccharomyces cerevisiae, Assay Type: Reverse gene mutation, Assay Code: YER+, Evaluation Type: Evaluation A (Pre-1980)) was “active; positive”; the mutagenic call (Species/Cell Type: Salmonella typhimurium (one or more of the five standard strains: TA98, TA100, TA1535, TA1537, and TA1538), Assay Type: Histidine reverse gene mutation, Ames assay, Assay Code: SAL+, Evaluation Type: Evaluation A (Pre-1980)) was “active; positive”; the mutagenic call (Species/Cell Type: Salmonella typhimurium, Assay Type: Forward and reverse gene mutation, body fluid assay, Assay Code: BFU-, Evaluation Type: Evaluation A (Pre-1980)) was “inactive; negative”; the mutagenic call (Species/Cell Type: Schizosaccharomyces pombe, Assay Type: Forward gene mutation, Assay Code: YEY+, Evaluation Type: Evaluation A (Pre-1980)) was “active; positive”; the mutagenic call (Species/Cell Type: Schizosaccharomyces pombe, Assay Type: Reverse gene mutation, Assay Code: YEZ+, Evaluation Type: Evaluation A (Pre-1980)) was “active; positive”. Moreover, the mutagenic call (Species/Cell Type: Syrian hamster embryo (SA7/SHE) cells, Assay Type: Cell transformation, viral enhanced, Assay Code: CT7+, Evaluation Type: Evaluation A (Pre-1980)) was “active; positive”; the mutagenic call (Species/Cell Type: Syrian hamster embryo (SHE) cells, Assay Type: Cell transformation, focus assay, Assay Code: CTF+, Evaluation Type: Evaluation A (Pre-1980)) is “active; positive”; the mutagenic call (Species/Cell Type: Vicia faba, Assay Type: Chromosome aberrations, Assay Code: VIC+D, Dose Response: With dose response, Evaluation Type: Evaluation A (Pre-1980)) was “active; positive”. Moreover, under “Species/Cell Type: Nonhuman, Assay Type: In vivo carcinogenicity studies, Assay Code: CCG+, Evaluation Type: Evaluation A (Pre-1980)”, the call was “active; positive”.

On to `CCN1CC[C@@H]2[C@@H](c3ccc(C)cc3)c3cc(C)ccc3[C@@H]2C1`, for which the mutagenic call is, setting by setting: (Species/Cell Type: Mouse, Sex: Male, Assay Type: Sperm morphology, Assay Code: SPI-, Evaluation Type: Evaluation A (Pre-1980)) “inactive; negative”; (Species/Cell Type: Rodents, Sex: Male, Assay Type: Dominant lethal test, Assay Code: DLT-, Evaluation Type: Evaluation A (Pre-1980)) “inactive; negative”; (Species/Cell Type: Salmonella typhimurium (one or more of the five standard strains: TA98, TA100, TA1535, TA1537, and TA1538), Assay Type: Histidine reverse gene mutation, Ames assay, Assay Code: SALT, Evaluation Type: Evaluation A (Pre-1980)) “no conclusion”.

For `Cc1ccccc1O`, the mutagenic call by setting is: (Species/Cell Type: Allium cepa, Assay Type: Chromosome aberrations, Assay Code: ALCT, Evaluation Type: Evaluation A (Pre-1980)) “no conclusion”; (Species/Cell Type: Human lymphocytes, Assay Type: Sister-chromatid exchange (SCE) in vitro, Assay Code: SCLT, Evaluation Type: Evaluation B (Post-1980)) “no conclusion”; under setting [1], “active; positive”; (Species/Cell Type: Nonhuman, Assay Type: Sister-chromatid exchange (SCE) in vivo, Assay Code: SC3T, Evaluation Type: Evaluation B (Post-1980)) “no conclusion”.

As to `O=C(O)CNCP(=O)(O)O`, the mutagenic call is, setting by setting: (Species/Cell Type: Human lymphocytes, Assay Type: Sister-chromatid exchange (SCE) in vitro, Assay Code: SCL+, Evaluation Type: Evaluation B (Post-1980)) “active; positive”; under setting [1], “active; positive”.

For `Cc1c2c(c(C)c3ccccc13)C(O)C(O)c1ccccc1-2` (stereo unspecified), the mutagenic call (Species/Cell Type: Chinese hamster lung (V79) cells, Assay Type: Forward gene mutation at the HPRT or ouabain locus, Assay Code: V79-*, Activation: With metabolic activation, Evaluation Type: Evaluation A (Pre-1980)) is “inactive; negative”.
